Source: PMC4861708 (Frontiers in Cell and Developmental Biology, 2016)
≈ marks a conversion by molar mass, not a printed value. Where a SMILES comes first, the peptide text is derived from it. The star is where a group is joined. Orn(α-tetramethylguanidino) = CN(C)C(=N[C@@H](CCCN)C(=O)*)N(C)C

Columns and labels:
[1] = tested on: K. pneumoniae DSM 681 (ATCC 10031); format: cell-based, Klebsiella pneumoniae; settings: DSM 681, 24 h
Procedure, shortened: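 Broth microdilution MIC: P. aeruginosa strains in 50 or 100% MHB, K. pneumoniae in TSB; peptides 512–4 μg/mL final. Inoculum from 1.5 × 10^7 cells/mL suspension, also high density 5 × 10^8 cells/mL; 37°C, 24 h, growth read at OD595.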

[2] = tested on: P. aeruginosa DSM 1117 (ATCC 27853); format: cell-based, Pseudomonas aeruginosa; settings: DSM 1117, 24 h
Experimental: MICs of P. aeruginosa strains DSM 1117 (ATCC 27853), DSM 3227 (ATCC 19429), and DSM 9644 were determined in a microdilution broth assay using 50 or 100% MHB (11.5 and 23 g/L MHB, respectively) whereas MICs of E. coli DSM 1103 (ATCC 25922) and K. pneumoniae DSM 681 (ATCC 10031) were determined in TSB (30 g/L TSB). Peptides (1 g/L in water) were serially two-fold diluted in a 96-well microtiter plate (PS, sterile, flat bottom) in 50 μL of the corresponding medium to final concentrations of 512–4 μg/mL. Bacteria were grown in nutrient broth overnight and diluted to a cell concentration of 1.5 × 10^7 cells/mL in the corresponding medium. Cell densities were determined by using the McFarland standard as reference. An aliquot (50 μL) of the cell culture was added to each well and incubated (37°C, 24 h). The OD595 was determined in a SpectraMax 340PC (Molecular Devices, Sunnyvale, USA). Additionally, MIC values were also determined for high bacteria densities (5 × 10^8 cells/mL) corresponding to the conditions used for TEM, as described above.

P. aeruginosa elastase = biological target: T1, P. aeruginosa elastase (Pseudomonas aeruginosa, UniProt P14756); assay: Elastase assay (proteolytic stability); format: in vitro ADME; settings: after 6 h, elastase 12 units/mL, pH 8.3, 37°C
T1 construct: purchased Merck (Darmstadt, Germany)

E. coli DSM 1103 = assay: Transmission electron microscopy, morphological changes; format: cell-based, Escherichia coli; settings: 1 h
Experimental: (§1) Peptide-bacteria mixtures were fixed (2% glutaraldehyde, 5 mmol/L CaCl2, 10 mmol/L MgCl2 in 0.1 mol/L sodium cacodylate buffer, pH 7.4) overnight at 4°C. […] Samples were rinsed with distilled water (5 × 10 min), incubated with aqueous uranylacetate (0.5% w/v) for 1 h at 4°C, washed with distilled water (3 × 10 min), and embedded in Epon. The hardened blocks were sectioned (50 nm) on a UCT ultramicrotome (Leica, Vienna, Austria), stained with uranyl acetate and lead citrate on an AC20 system (Leica), and visualized at a Tecnai 12 electron microscope (FEI, Eindhoven, The Netherlands) at 80 kV. Morphological effects were quantified on average for 25 cells per condition.

P. aeruginosa DSM 1117 = assay: as above; format: cell-based, Pseudomonas aeruginosa; settings: 1 h
Experimental: as §1

T1 sequence (P14756 198-498): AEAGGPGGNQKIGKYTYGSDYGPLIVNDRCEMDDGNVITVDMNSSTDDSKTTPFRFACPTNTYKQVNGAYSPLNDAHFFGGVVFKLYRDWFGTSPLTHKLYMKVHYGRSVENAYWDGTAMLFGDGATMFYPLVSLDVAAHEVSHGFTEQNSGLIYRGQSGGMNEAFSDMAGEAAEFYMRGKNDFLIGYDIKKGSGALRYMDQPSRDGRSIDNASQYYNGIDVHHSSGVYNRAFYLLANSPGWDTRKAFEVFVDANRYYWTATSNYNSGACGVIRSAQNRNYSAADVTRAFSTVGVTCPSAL

## CC[C@H](C)[C@H](NC(=O)[C@H](Cc1ccc(O)cc1)NC(=O)[C@@H](NC(=O)[C@@H]1CCCN1C(=O)[C@H](CCCNC(=N)N)NC(=O)[C@H](CC(N)=O)NC(=O)[C@H](CC(N)=O)NC(=O)[C@H](CCCN)N=C(N(C)C)N(C)C)C(C)C)C(=O)N1CCC[C@H]1C(=O)N[C@@H](CCCNC(=N)N)C(=O)N1CCC[C@H]1C(=O)N[C@@H](CCCNC(=N)N)C(=O)N1CCC[C@H]1C(=O)N1CCC[C@H]1C(=O)N[C@@H](Cc1c[nH]cn1)C(=O)N1CCC[C@H]1C(=O)N[C@@H](CCCNC(=N)N)C(=O)N[C@@H](CC(C)C)C(=O)O [Api137, gu-ONNRPVYIPRPRPPHPRL-OH, reference compound] ({Orn(α-tetramethylguanidino)}-NNRPVYIPRPRPPHPRL-OH)
[1]
  MIC K. pneumoniae DSM 681: 16 µg/mL (≈ 6.98 µM)
[2]
  MIC P. aeruginosa DSM 1117, high inoculum: 128 µg/mL (≈ 55.9 µM)
P. aeruginosa elastase
  Peptide remaining with elastase: fully recovered
E. coli DSM 1103; 8 µg/mL
  Cell: r, ruptured: 0%
  DNA/Ribosomes relocalized: 17%
  Fragments: +++, long and thick: 0%
  Fragments: ++, long and thin: 27%
  Fragments: +, small and thin: 30%
  Fragments: -, no: 43%
  Fragments: LV, large vesicles: 0%
  Membrane: i, intact: 100%
  Membrane: w, wrinkled: 0%
  Vesicle release strong: 100%
E. coli DSM 1103; 32 µg/mL
  Cell: r, ruptured: 0%
  DNA/Ribosomes relocalized: 30%
  Fragments: +++, long and thick: 0%
  Fragments: ++, long and thin: 23%
  Fragments: +, small and thin: 40%
  Fragments: -, no: 37%
  Fragments: LV, large vesicles: 0%
  Membrane: i, intact: 97%
  Membrane: w, wrinkled: 3%
  Vesicle release strong: 100%
E. coli DSM 1103; 128 µg/mL
  Cell: r, ruptured: 0%
  DNA/Ribosomes relocalized: 0%
  Fragments: +++, long and thick: 0%
  Fragments: ++, long and thin: 42%
  Fragments: +, small and thin: 54%
  Fragments: -, no: 4%
  Fragments: LV, large vesicles: 0%
  Membrane: i, intact: 4%
  Membrane: w, wrinkled: 96%
  Vesicle release weak: 35%
E. coli DSM 1103; 512 µg/mL
  Cell: r, ruptured: 0%
  DNA/Ribosomes relocalized: 0%
  Fragments: +++, long and thick: 0%
  Fragments: ++, long and thin: 29%
  Fragments: +, small and thin: 61%
  Fragments: -, no: 11%
  Fragments: LV, large vesicles: 0%
  Membrane: i, intact: 32%
  Membrane: w, wrinkled: 68%
  Vesicle release weak: 50%
P. aeruginosa DSM 1117; 32 µg/mL
  Cells spongy: 0%
  DNA/ribosomes relocalization: +++, extremely relocalized: 0%
  DNA/ribosomes relocalization: +, starting: 43%
  DNA/ribosomes relocalization: -, no: 40%
  Membrane: b, broken: 0%
  Membrane: i, intact: 100%
  Membrane: r, ruptured: 0%
  Ribosome clustering: +++, extremely clustered: 0%
  Ribosome clustering: ++, clustered: 0%
  Ribosome clustering: +, starting: 63%
  Ribosome clustering: -, no: 37%
  Vesicle release: 43%
  dissociated Fragments: ++, long and thin: 0%
  dissociated Fragments: -, no: 87%
  dissociated Fragments: LV, large vesicles: 0%
P. aeruginosa DSM 1117; 128 µg/mL
  Cells spongy: 0%
  DNA/ribosomes relocalization: +++, extremely relocalized: 0%
  DNA/ribosomes relocalization: +, starting: 37%
  DNA/ribosomes relocalization: -, no: 47%
  Membrane: b, broken: 0%
  Membrane: i, intact: 100%
  Membrane: r, ruptured: 0%
  Ribosome clustering: +++, extremely clustered: 0%
  Ribosome clustering: ++, clustered: 0%
  Ribosome clustering: +, starting: 57%
  Ribosome clustering: -, no: 43%
  Vesicle release: 47%
  dissociated Fragments: ++, long and thin: 3%
  dissociated Fragments: +, small and thin: 10%
  dissociated Fragments: -, no: 87%
  dissociated Fragments: LV, large vesicles: 0%
P. aeruginosa DSM 1117; 512 µg/mL
  Cells spongy: 0%
  DNA/ribosomes relocalization: +++, extremely relocalized: 0%
  DNA/ribosomes relocalization: +, starting: 40%
  DNA/ribosomes relocalization: -, no: 47%
  Membrane: b, broken: 0%
  Membrane: i, intact: 100%
  Membrane: r, ruptured: 0%
  Ribosome clustering: +++, extremely clustered: 0%
  Ribosome clustering: ++, clustered: 0%
  Ribosome clustering: +, starting: 30%
  Ribosome clustering: -, no: 70%
  Vesicle release: 37%
  dissociated Fragments: ++, long and thin: 3%
  dissociated Fragments: +, small and thin: 0%
  dissociated Fragments: -, no: 97%
  dissociated Fragments: LV, large vesicles: 0%
